Literature values in US20220331213A1, “ANTIMICROBIAL COMPOSITIONS COMPRISING A BENZOIC ACID ANALOG AND ACID PH BUFFERS” (eHealth Nexus LLC, priority 2021, published 2022).

Assays:
[1] = for pK2 / pK1: aqueous; for pK2: second dissociation of di-/polycarboxylic acid; for pK1: first dissociation of di-/polycarboxylic acid; for pKa (acid dissociation constant): aqueous pKa
rhinovirus = conditions: 2% salicylic acid on skin

O=C(O)CCCCC(=O)O [adipic acid]
pK2 [1]: about 5.4

O=C(O)CC(O)(CC(=O)O)C(=O)O [citric acid]
pK1 [1]: about 2.9

O=C(O)[C@H](O)[C@@H](O)[C@H](O)[C@H](O)CO [gluconic acid]
pKa (acid dissociation constant) [1]: 3.85

O=C(O)CCCC(=O)O [glutaric acid]
pKa (acid dissociation constant) [1]: 3.76 | pK1 [1]: about 4.3 | pK2 [1]: about 5.4

O=C(O)CO [glycolic acid]
pKa (acid dissociation constant) [1]: ~3.8

O=C(O)c1cccnc1 [nicotinic acid]
pKa (acid dissociation constant) [1]: 4.82

O=C(O)c1ccccc1O [salicylic acid]
residual anti-rhinovirus activity on the skin (rhinovirus): diminish over 3 hours
